36 molecules from patent US10098883B2, “(Aza)pyridopyrazolopyrimidinones and indazolopyrimidinones and their use” (BAYER PHARMA AKTIENGESELLSCHAFT, priority 2013, dated 2018) can be followed below.

pIC50: −log10 of the molar value. Counter-ions that a name gives are not always drawn.

The subject of one assay is clot lysis (fibrinolysis) in human citrated plasma, tPA-induced. The experiment in a line: Plasma-based clot lysis assay (5%). It is filed as biochemical. The following applies: diluted human citrated plasma (platelet-poor, 5%), fibrinogen 3 μM, CaCl2 10 mM, tPA 0.2 nM, 37° C., OD 405 nm. How it is done: B-2. Plasma-based Clot Lysis Assay (5%)
The clot-lysis test system configures the kinetics of clot formation and degradation in vitro and allows quantifying modulation of the process by selected test compounds.
The test compounds were dissolved in 1% acetic acid and further complemented with an equal volume of DMSO. The resulting stock solutions were serially diluted in 0.5% acetic acid/50% DMSO. 1 μL aliquots of these solutions were placed into 384 well microplates (Greiner, black, transparent bottom), followed by 30 μL of diluted human citrated plasma (platelet-poor, final concentration: 5%; supplemented with fibrinogen, final concentration: 3 μM; dilution buffer: 20 mM HEPES, 150 mM NaCl, 0.01% Brij (pH 7)). The reactions were started by addition of […] of CaCl2 (final concentration: 10 mM), and tPA (tissue plasminogen activator, final concentration: 0.2 nM) in dilution buffer, followed by an additional volume of 20 μL dilution buffer for improved mixing. The reactions were incubated at 37° C. Clot formation and degradation was monitored spectrophotometrically by kinetic optical density measurements at 405 nm. IC50 values were determined by comparing the resulting time courses with the time course of a blank control reaction.
`O=c1cc(C2CCNCC2)n2nc3cccc(-c4ccccc4OC(F)(F)F)c3c2[nH]1` [Example 80, 4-(Piperidin-4-yl)-10-[2-(trifluoromethoxy)phenyl]pyrimido[1,2-b]indazol-2(1H)-on hydrochloride] gave a pIC50 of 7.74. On to `O=c1cc(C2CCNCC2)n2nc3ccc(F)cc3c2[nH]1` [Example 7, 9-Fluoro-4-(piperidin-4-yl)pyrimido[1,2-b]indazol-2(1H)-one hydrochloride], for which the pIC50 was 7.02. As for `O=c1cc(C2CCNCC2)n2nc3cccc(-c4ccccc4Cl)c3c2[nH]1` [Example 64, 10-(2-Chlorophenyl)-4-(piperidin-4-yl)pyrimido[1,2-b]indazol-2(1H)-one hydrochloride], the pIC50 was 7.72. `O=c1cc(C2CCNCC2)n2nc3cccc(-c4ccc(C(F)(F)F)cc4)c3c2[nH]1` [Example 55, 4-(Piperidin-4-yl)-10-[4-(trifluoromethyl)phenyl]pyrimido[1,2-b]indazol-2(1H)-one hydrochloride] had a negative-log IC50 (pIC50) of 7.85. This pIC50 and that of the molecule before are within 0.2 log units of each other.

As for `O=c1cc(C2CCNCC2)n2nc3c(F)ccc(Br)c3c2[nH]1` [Example 71, 10-Bromo-7-fluoro-4-(piperidin-4-yl)pyrimido[1,2-b]indazol-2(1H)-one hydrochloride], the pIC50 was 7.82. On to `O=c1cc(C2CCNCC2)n2nc3cc(C(F)(F)F)cc([N+](=O)[O-])c3c2[nH]1` [Example 31, 10-Nitro-4-(piperidin-4-yl)-8-(trifluoromethyl)pyrimido[1,2-b]indazol-2(1H)-one hydrochloride], for which the pIC50 is 7.01.

For `CCC(C)c1cccc2nn3c(C4CCNCC4)cc(=O)[nH]c3c12` (stereo not drawn) [Example 72, 10-sec-Butyl-4-(piperidin-4-yl)pyrimido[1,2-b]indazol-2(1H)-one hydrochloride], the negative-log IC50 (pIC50) was 7.85.

As for `Cc1ccc2nn3c(C4CCNCC4)cc(=O)[nH]c3c2c1Cl` [Example 69, 10-Chloro-9-methyl-4-(piperidin-4-yl)pyrimido[1,2-b]indazol-2(1H)-one hydrochloride], the negative-log IC50 (pIC50) is 7.70. This pIC50 and that of the molecule before are within 0.2 log units of each other. The same measure, in the same setting: in the case of `Cc1ccnc2nn3c(C4CCNCC4)cc(=O)[nH]c3c12` [Example 47, 10-methyl-4-(piperidin-4-yl)pyrido[2′,3′:3,4]pyrazolo[1,5-a]pyrimidin-2(1H)-one hydrochloride] it was 7.62.

On to `CC(C)Cc1cccc2nn3c(C4CCNCC4)cc(=O)[nH]c3c12` [Example 73, 10-Isobutyl-4-(piperidin-4-yl)pyrimido[1,2-b]indazol-2(1H)-one hydrochloride], for which the pIC50 is 7.64. This pIC50 and that of the molecule before are within 0.2 log units of each other.

Turning to `O=c1cc(C2CCNCC2)n2nc3cccc(Cl)c3c2[nH]1` [Example 66, 10-Chloro-4-(piperidin-4-yl)pyrimido[1,2-b]indazol-2(1H)-one], the pIC50 was 7.82. This pIC50 and that of the molecule before are within 0.2 log units of each other. `O=c1cc(C2CCNCC2)n2nc3ccc(F)c(Cl)c3c2[nH]1` [Example 90, 10-Chloro-9-fluoro-4-(piperidin-4-yl)pyrimido[1,2-b]indazol-2(1H)-one hydrochloride]: the pIC50 is 7.62. Compared with the last molecule, the pIC50 is 0.20 log units lower. Regarding `O=C(O)c1cccc2nn3c(C4CCNCC4)cc(=O)[nH]c3c12` [Example 106, 2-oxo-4-(piperidin-4-yl)-1,2-dihydropyrimido[1,2-b]indazole-10-carboxylic acid hydrochloride], the pIC50 is 6.38. `Cn1nccc1-c1cccc2nn3c(C4CCNCC4)cc(=O)[nH]c3c12` [Example 86, 10-(1-Methyl-1H-pyrazol-5-yl)-4-(piperidin-4-yl)pyrimido[1,2-b]indazol-2(1H)-one hydrochloride]: the pIC50 was 7.82. For `O=c1cc(C2CCNCC2)n2nc3cc(C(F)(F)F)cc(Cl)c3c2[nH]1` [Example 41, 10-Chloro-4-(piperidin-4-yl)-8-(trifluoromethyl)pyrimido[1,2-b]indazol-2(1H)-one hydrochloride], the pIC50 was 7.64. Molecule `Cc1cc(C)c2c(n1)nn1c(C3CCNCC3)cc(=O)[nH]c21` [Example 32, 8,10-Dimethyl-4-(piperidin-4-yl)pyrido[2′,3′:3,4]pyrazolo[1,5-a]pyrimidin-2(1H)-one hydrochloride] showed a pIC50 of 6.68. Still for that read-out and setting: in the case of `O=c1cc(C2CCNCC2)n2nc3cccc(I)c3c2[nH]1` [Example 20, 10-Iodo-4-(piperidin-4-yl)pyrimido[1,2-b]indazol-2(1H)-one hydrochloride] it was 7.66; in that of `O=c1cc(C2CCNCC2)n2nc3ncc(-c4ccccc4)cc3c2[nH]1` [Example 45, 9-Phenyl-4-(piperidin-4-yl)pyrido[2′,3′:3,4]pyrazolo[1,5-a]pyrimidin-2(1H)-one hydrochloride], 7.43; in that of `CC(C)c1cccc2nn3c(C4CCNCC4)cc(=O)[nH]c3c12` [Example 62, 10-Isopropyl-4-(piperidin-4-yl)pyrimido[1,2-b]indazol-2(1H)-one hydrochloride], 7.74. For `Cc1cccc2nn3c(C4CCNCC4)cc(=O)[nH]c3c12` [Example 36, 10-Methyl-4-(piperidin-4-yl)pyrimido[1,2-b]indazol-2(1H)-one hydrochloride], the pIC50 is 7.74. Still for that read-out and setting: to `O=c1cc(C2CCNCC2)n2nc3ccc(Br)cc3c2[nH]1` [Example 19, 9-Bromo-4-(piperidin-4-yl)pyrimido[1,2-b]indazol-2(1H)-one hydrochloride] belongs 7.59; to `Cc1ccccc1-c1cccc2nn3c(C4CCNCC4)cc(=O)[nH]c3c12` [Example 85, 10-(2-Methylphenyl)-4-(piperidin-4-yl)pyrimido[1,2-b]indazol-2(1H)-one hydrochloride], 7.74; to `O=c1cc(C2CCNCC2)n2nc3nc(-c4ccccc4)ccc3c2[nH]1` [Example 44, 8-Phenyl-4-(piperidin-4-yl)pyrido[2′,3′:3,4]pyrazolo[1,5-a]pyrimidin-2(1H)-one hydrochloride], 7.32. Consider `O=c1cc(C2CCNCC2)n2nc3ccc(C(F)(F)F)cc3c2[nH]1` [Example 2, 4-(Piperidin-4-yl)-9-(trifluoromethyl)pyrimido[1,2-b]indazol-2(1H)-one hydrochloride], for which the pIC50 was 7.52. Turning to `O=c1cc(C2CCNCC2)n2nc3ccc(I)cc3c2[nH]1` [Example 48, 9-Iodo-4-(piperidin-4-yl)pyrimido[1,2-b]indazol-2(1H)-one hydrochloride], the pIC50 is 7.44. `O=c1cc(C2CCNCC2)n2nc3cccc(-n4cccn4)c3c2[nH]1` [Example 96, 4-(Piperidin-4-yl)-10-(1H-pyrazol-1-yl)pyrimido[1,2-b]indazol-2(1H)-one hydrochloride] showed a pIC50 of 7.59. Consider `O=c1cc(C2CCNCC2)n2nc3c(F)cccc3c2[nH]1` [Example 28, 7-Fluoro-4-(piperidin-4-yl)pyrimido[1,2-b]indazol-2(1H)-one hydrochloride], for which the pIC50 was 7.48.

With `CCOc1ccccc1-c1cccc2nn3c(C4CCNCC4)cc(=O)[nH]c3c12` [Example 93, 10-(2-Ethoxyphenyl)-4-(piperidin-4-yl)pyrimido[1,2-b]indazol-2(1H)-one hydrochloride], the pIC50 was 7.55. This pIC50 and that of the molecule before are within 0.2 log units of each other. On to `C[C@H]1C[C@H](c2cc(=O)[nH]c3c4c(-c5ccccc5)ccnc4nn23)CCN1` [Example 51, (−)-trans-4-(2-Methylpiperidin-4-yl)-10-phenylpyrido[2′,3′:3,4]pyrazolo[1,5-a]pyrimidin-2(1H)-one hydrochloride], for which the pIC50 was 7.82. Same read-out and setting: in the case of `Cc1ccc2nn3c(C4CCNCC4)cc(=O)[nH]c3c2c1Br` [Example 74, 10-Bromo-9-methyl-4-(piperidin-4-yl)pyrimido[1,2-b]indazol-2(1H)-one hydrochloride] it was 7.82. The same measure, in the same setting: in the case of `O=c1cc(C2CCNCC2)n2nc3cccc(-c4nccs4)c3c2[nH]1` [Example 83, 4-(Piperidin-4-yl)-10-(1,3-thiazol-2-yl)pyrimido[1,2-b]indazol-2(1H)-one hydrochloride] it was 7.39; in that of `O=c1cc(C2CCNCC2)n2nc3ccc(F)c(-c4ccccc4F)c3c2[nH]1` [Example 92, 9-Fluoro-10-(2-fluorophenyl)-4-(piperidin-4-yl)pyrimido[1,2-b]indazol-2(1H)-one hydrochloride], 7.57; in that of `COc1cccc(F)c1-c1cccc2nn3c(C4CCNCC4)cc(=O)[nH]c3c12` [Example 97, 10-(2-Fluoro-6-methoxyphenyl)-4-(piperidin-4-yl)pyrimido[1,2-b]indazol-2(1H)-one hydrochloride], 7.52. The same measure, in the same setting: in the case of `O=c1cc(C2CCNCC2)n2nc3cccc(-c4ccccc4)c3c2[nH]1` [Example 56, 10-Phenyl-4-(piperidin-4-yl)pyrimido[1,2-b]indazol-2(1H)-one hydrochloride] it was 7.85.

Staying with this assay, now noted: diluted human citrated plasma (platelet-poor, 5%), fibrinogen 3 μM, CaCl2 10 mM, tPA 0.2 nM, 37° C., OD 405 nm; hydrochloride.
`C[C@H]1C[C@H](c2cc(=O)[nH]c3c4c(Cl)cccc4nn23)CCN1` [Example 68, (−)-trans-10-Chloro-4-(2-methylpiperidin-4-yl)pyrimido[1,2-b]indazol-2(1H)-one hydrochloride]: the negative logarithm of the IC50 (pIC50) was 7.60.

Still in this assay, the particulars now being: diluted human citrated plasma (platelet-poor, 5%), fibrinogen 3 μM, CaCl2 10 mM, tPA 0.2 nM, 37° C., OD 405 nm; trifluoroacetate.
`N#Cc1cccc2nn3c(C4CCNCC4)cc(=O)[nH]c3c12` [Example 33, 2-Oxo-4-(piperidin-4-yl)-1,2-dihydropyrimido[1,2-b]indazole-10-carbonitrile trifluoroacetate] had a pIC50 of 7.68.
